Measured values taken from ChEMBL document CHEMBL1201862, “PubChem BioAssay data set” (2004).
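Protocol summary: plate cells (96-well), add compound at 5 concentrations, incubate 48 h, interpolate endpoints linearly. Here, GI50 denotes the concentration required for 50% inhibition of growth.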 Active and inactive are the calls of the source. Cut-off read from the data, not from the text of the source: active = GI50 up to about 1.1 µM and inactive = higher.

Legend:
Test in all cases: NCI-60 cell line screen, 48 h
SW-620 = tested on: SW-620
SR = tested on: SR
NCI-H23 = tested on: NCI-H23
IGROV-1 = tested on: IGROV-1
UO-31 = tested on: UO-31
SK-MEL-5 = tested on: SK-MEL-5
HL-60 = tested on: HL-60
M14 = tested on: M14
SNB-75 = tested on: SNB-75
U-251 = tested on: U-251
UACC-62 = tested on: UACC-62
UACC-257 = tested on: UACC-257
EKVX = tested on: EKVX
SF-295 = tested on: SF-295
TK-10 = tested on: TK-10
HCT-116 = tested on: HCT-116
COLO 205 = tested on: COLO 205
DU-145 = tested on: DU-145
MDA-MB-231 = tested on: MDA-MB-231

Measured: GI50

Cc1cccc(/N=C2\NC(=O)C(CC(=O)Nc3ccc(C)cc3C)S2)c1 (centres undefined)
inactive: SW-620 > 100 µM | SR 52.6 µM | NCI-H23 57 µM | IGROV-1 > 100 µM | UO-31 66.7 µM | SK-MEL-5 94 µM | HL-60 > 100 µM | M14 > 100 µM | SNB-75 > 100 µM | U-251 > 100 µM | UACC-62 68.2 µM | UACC-257 > 100 µM | EKVX 47.1 µM | SF-295 61.9 µM | TK-10 > 100 µM | HCT-116 > 100 µM

Cn1cnc([N+](=O)[O-])c1Sc1nccc(O)n1
inactive: SW-620 > 100 µM | SR > 100 µM | NCI-H23 > 100 µM | IGROV-1 > 100 µM | UO-31 > 100 µM | SK-MEL-5 > 100 µM | M14 > 100 µM | SNB-75 > 100 µM | U-251 > 100 µM | UACC-62 > 100 µM | UACC-257 > 100 µM | EKVX > 100 µM | COLO 205 > 100 µM | SF-295 > 100 µM | TK-10 > 100 µM | HCT-116 > 100 µM

CC(=O)OCC1OC(Nc2nc(O)n(C)c(=O)c2-c2csc(N)n2)C(OC(C)=O)C(OC(C)=O)C1OC(C)=O (centres undefined)
inactive: SW-620 > 100 µM | SR > 100 µM | NCI-H23 > 100 µM | IGROV-1 > 100 µM | UO-31 > 100 µM | SK-MEL-5 > 100 µM | HL-60 70 µM | M14 > 100 µM | SNB-75 > 100 µM | U-251 > 100 µM | UACC-62 > 100 µM | UACC-257 > 100 µM | COLO 205 > 100 µM | SF-295 > 100 µM | TK-10 > 100 µM | HCT-116 > 100 µM

O=c1c2ccccc2sc2nc(O)nn12
inactive: SW-620 > 100 µM | SR > 100 µM | NCI-H23 > 100 µM | IGROV-1 > 100 µM | UO-31 > 100 µM | SK-MEL-5 > 100 µM | HL-60 > 100 µM | M14 > 100 µM | SNB-75 > 100 µM | U-251 > 100 µM | UACC-62 > 100 µM | UACC-257 > 100 µM | EKVX > 100 µM | COLO 205 > 100 µM | SF-295 > 100 µM | TK-10 > 100 µM | HCT-116 > 100 µM

Cc1cccc2c1C(=O)OC2(c1cccc2ccccc12)c1cccc2ccccc12
inactive: SW-620 > 100 µM | SR > 100 µM | NCI-H23 26.7 µM | IGROV-1 > 100 µM | UO-31 79.3 µM | SK-MEL-5 > 100 µM | HL-60 > 100 µM | M14 > 100 µM | SNB-75 21.3 µM | U-251 70.1 µM | UACC-62 > 100 µM | UACC-257 > 100 µM | EKVX > 100 µM | COLO 205 > 100 µM | SF-295 33.6 µM | TK-10 > 100 µM | HCT-116 > 100 µM

CCN(CC)C(=S)SS(C)(=O)=O
inactive: SW-620 18.5 µM | NCI-H23 19.9 µM | IGROV-1 > 100 µM | UO-31 19 µM | SK-MEL-5 25.5 µM | HL-60 5.12 µM | M14 18.2 µM | SNB-75 29.6 µM | U-251 17.7 µM | UACC-62 15.1 µM | UACC-257 23.2 µM | EKVX 37.2 µM | COLO 205 15.4 µM | SF-295 18.9 µM | TK-10 18.3 µM | HCT-116 26.4 µM

C/C(=C1/N=C(c2cc([N+](=O)[O-])ccc2Cl)N(C2=CC=C(Cl)CC2)C1=O)c1cc2ccccc2oc1=O
inactive: SW-620 36.5 µM | SR 28.6 µM | NCI-H23 14.4 µM | IGROV-1 27.6 µM | UO-31 21.8 µM | SK-MEL-5 24.3 µM | HL-60 20 µM | M14 23.9 µM | SNB-75 32.4 µM | U-251 49.2 µM | UACC-62 29.2 µM | UACC-257 26.5 µM | EKVX > 100 µM | COLO 205 47.6 µM | SF-295 41.7 µM | HCT-116 37.4 µM

CCOC(=O)C12CC1(C(=O)OCC)C1CCC2C1 (centres undefined)
inactive: SW-620 > 100 µM | SR 49.9 µM | NCI-H23 > 100 µM | IGROV-1 > 100 µM | UO-31 > 100 µM | SK-MEL-5 54.1 µM | HL-60 71.6 µM | M14 > 100 µM | U-251 > 100 µM | UACC-62 > 100 µM | UACC-257 44.7 µM | COLO 205 > 100 µM | SF-295 > 100 µM | TK-10 > 100 µM | HCT-116 > 100 µM

Nc1cc2c(cc1[N+](=O)[O-])[nH]c1c(-c3ccccc3)nccc12
inactive: SW-620 25.9 µM | NCI-H23 18.7 µM | IGROV-1 8.65 µM | UO-31 5.77 µM | SK-MEL-5 13.5 µM | HL-60 11.8 µM | SNB-75 19.2 µM | U-251 18.8 µM | UACC-62 13.6 µM | UACC-257 18 µM | EKVX 21.7 µM | COLO 205 20.7 µM | SF-295 21.7 µM | HCT-116 15.3 µM

O=NN(CCCl)C(=O)NC1CCC(CC2CCC(NC(=O)N(CCCl)N=O)CC2)CC1 (centres undefined)
active: SF-295 0.986 µM
inactive: SW-620 23.3 µM | SR 17.9 µM | NCI-H23 34.1 µM | IGROV-1 29.9 µM | UO-31 46.1 µM | SK-MEL-5 32 µM | HL-60 16.4 µM | M14 96.8 µM | SNB-75 16.6 µM | U-251 1.24 µM | UACC-257 3.29 µM | EKVX > 63.4 µM | COLO 205 > 48.1 µM | TK-10 32.5 µM | HCT-116 30.1 µM

COC(=O)C1=C(C)N(NC(=O)c2ccccc2)C2(O)CCCC(=O)C12C (centres undefined)
inactive: SW-620 > 100 µM | NCI-H23 > 100 µM | IGROV-1 > 100 µM | UO-31 > 100 µM | SK-MEL-5 > 100 µM | M14 > 100 µM | SNB-75 63.5 µM | U-251 > 100 µM | UACC-62 > 100 µM | UACC-257 > 100 µM | COLO 205 > 100 µM | SF-295 > 100 µM | TK-10 > 100 µM | HCT-116 > 100 µM

CCOC(=O)CCCOc1cc(-c2ccccc2F)nc2cc3c(cc12)OCO3
inactive: SW-620 > 100 µM | SR 32 µM | DU-145 > 100 µM | NCI-H23 46.6 µM | IGROV-1 24.6 µM | SK-MEL-5 57.7 µM | M14 53 µM | SNB-75 40.9 µM | U-251 95.9 µM | UACC-62 84.9 µM | UACC-257 70.3 µM | EKVX 40.6 µM | COLO 205 > 100 µM | MDA-MB-231 > 100 µM | TK-10 > 100 µM

COc1nc2[nH]ccc2c(=O)n1C
inactive: SW-620 > 100 µM | SR > 100 µM | NCI-H23 > 100 µM | IGROV-1 > 100 µM | SK-MEL-5 > 100 µM | HL-60 > 100 µM | M14 > 100 µM | SNB-75 > 100 µM | U-251 > 100 µM | UACC-257 > 100 µM | EKVX > 100 µM | COLO 205 > 100 µM | SF-295 > 100 µM | TK-10 > 100 µM | HCT-116 > 100 µM

Cc1cc(O)nc(NN2C(Cl)C(=O)C2c2cccc(O)c2)n1 (centres undefined)
inactive: SW-620 12.4 µM | SR 4.11 µM | NCI-H23 5.73 µM | IGROV-1 4.8 µM | UO-31 3.83 µM | SK-MEL-5 12.2 µM | HL-60 4.26 µM | M14 7.13 µM | SNB-75 1.64 µM | U-251 3.05 µM | UACC-62 3.37 µM | UACC-257 18.7 µM | EKVX 17.9 µM | COLO 205 39.4 µM | TK-10 42.5 µM | HCT-116 2.87 µM

CC(C)c1ccc(O)c(=O)cc1 [GAMMA-THUJAPLICIN]
inactive: SW-620 4.78 µM | SR 1.66 µM | NCI-H23 7.38 µM | IGROV-1 10.4 µM | UO-31 3.42 µM | SK-MEL-5 9.35 µM | HL-60 2.02 µM | M14 7.64 µM | SNB-75 20.6 µM | U-251 7.29 µM | UACC-62 3.53 µM | UACC-257 3.38 µM | EKVX 10.1 µM | COLO 205 3.74 µM | SF-295 4.02 µM | TK-10 16.1 µM | HCT-116 2.8 µM

COc1ccc(/C(=N\NC(=O)NN)C(c2ccc(OC)cc2)C2(O)C(=O)Nc3c(Cl)cc(Cl)cc32)cc1 (centres undefined)
inactive: SW-620 > 100 µM | NCI-H23 > 100 µM | IGROV-1 > 100 µM | UO-31 > 100 µM | SK-MEL-5 > 100 µM | HL-60 13.8 µM | M14 > 100 µM | SNB-75 > 100 µM | U-251 > 100 µM | UACC-62 > 100 µM | UACC-257 > 100 µM | EKVX > 100 µM | COLO 205 > 100 µM | SF-295 > 100 µM | TK-10 > 100 µM | HCT-116 56.8 µM

CCOC(=O)/C(=C/c1ccccn1)C(=O)c1ccccc1
inactive: SW-620 14.2 µM | SR 3.32 µM | NCI-H23 15.8 µM | IGROV-1 16.3 µM | UO-31 16.3 µM | SK-MEL-5 14.3 µM | HL-60 2.19 µM | M14 15.1 µM | SNB-75 13.8 µM | U-251 14.3 µM | UACC-62 9.59 µM | UACC-257 13.8 µM | EKVX 19.1 µM | COLO 205 14.2 µM | SF-295 13 µM | TK-10 17.5 µM | HCT-116 13.8 µM
